SMILES strings stand for the structures.

For this experiment, the system named is depressed mice (chronic unpredictable stress depression mouse model). Nature of the experiment: Butyric acid content in the caecum of depressed mice (GC-MS). In kind it is in vivo, C57BL/6J mice. The note with it: 6 weeks intervention (CCFM687 10^9 cfu or fluoxetine 10 mg/kg), GC-MS of cecal content (FIG. 3). As for the experimental part:
32 6-week-old male C57BL/6J mice were selected. After one week of adaptation to the environment, the mice were randomly divided into four groups according to body weight: a control group, a model group, a fluoxetine intervention group, and a CCFM687 intervention group, each containing 8 mice.
Chronic unpredictable stress depression mouse model: 1-2 kinds of stimuli were randomly performed every day, and the performance time of stimuli every day was determined randomly to avoid the circadian rhythm. Each method was used for not more than three times, and the stimuli were performed for five weeks. The stimuli include: (1) fasting for 24 h; (2) water deprivation+empty bottle stimulus for 24 h; (3) tail pinching for 3 min; (4) wet padding for 24 h; (5) immobilization for 1-2 h; (6) 45° tilted cage for 24 h; (7) continuous lighting for 24 h; (8) no padding for 24 h; (9) forced swim for 15 min; and (10) separation for 24 h. […]
The mice in Example 2 were euthanized at the sixth weekend, and the content of the cecum of the mice was collected. […] 500 μL of supernatant was taken into a gas phase vial, and the contents of short-chain fatty acids (acetic acid, propionic acid, isobutyric acid, butyric acid and isovaleric acid) were measured by GC-MS. […] The analysis adopted a full scan mode, and the concentration of each short-chain fatty acid (μmol/g) was calculated by an external standard method. […]

With `CNCCC(Oc1ccc(C(F)(F)F)cc1)c1ccccc1` (stereo not shown) [fluoxetine], the “butyric acid content in the caecum / intestine” value is recorded as “has no regulating effect on the butyric acid content”.

The values are drawn from US20220288137A1, “Bifidobacterium Longum Subsp. Infantis CCFM687 and Fermented Food and Application Thereof” (Jiangnan University, priority 2018, published 2022).
